Columns and labels:
[1] = tested on: viral hepatitis; details: reported in JP-A-No. 58-35118; cited from earlier work
[2] = tested on: prolyl hydroxylase; details: rabbit, in vivo
Text: Male Japanese white rabbits weighing 2.5 kg were used. A cholesterol group consisting of 8 rabbits were fed on RC-4 diet (sold by Oriental Kobo Co., Ltd.) containing 0.5% cholesterol for 10 weeks. […] A control group consisting of 3 rabbits were fed on RC-4 diet for the same period.
The rabbits were sacrificed by exsangunation from abdominal aorta under anesthesia with pentobarbital and the liver and kidney were removed. A portion of the each organ was homogenized with 9 times the volume of a 0.01M Tris-hydrochloric acid buffer solution (pH 7.4) containing 10^-5 M EDTA and 10^-4 M DTT in Polytron homogenizer. The prolyl hydroxylase activity was expressed as radioactivity of ^3 H2 O released per milligram of protein when ^3 H-proline labeled unhydroxylated collagen was incubated as a substrate for 30 minutes. […] Incubation was carried out at 30° C. for 30 minutes. 100 μl of a 55% trichloroacetic acid aqueous solution was added thereto to stop the reaction. The ^3 H2 O of the reaction mixture was separated by vacuum distillation of the whole reaction mixture. An aliquot (800 μl) of the distillate was mixed with 10 ml of Aquasol and counted for the radioactivity in a liquid scintillation counter. The protein amount was measured by BIO.RAD Protein Assay Kit using bovine serum albumin (BSA) as a standard.

[3] = tested on: medicinal fatty liver; details: reported in JP-B-No. 60-19891; cited from earlier work

For `CC(C)(CO)[C@@H](O)C(=O)NCCC(=O)NCCSSCCNC(=O)CCNC(=O)[C@H](O)C(C)(C)CO` [Pantethine, D-bis-(N-pantothenyl-β-aminoethyl)-disulfide], the “effect on viral hepatitis (in words)” value [1] is listed as “effective”, the “Prolyl Hydroxylase Activity, Liver” value [2] is listed as 729.3 ± 45.6 cpm/mg-protein and the “prolyl hydroxylase activity in the liver (in words)” value [2] is listed as “decreased nearly to the level of the normal group”. For the same molecule, the “effect on medicinal fatty liver (in words)” value [3] was “effective”.

Source: patent US4937266A, “Inhibitory agent of hepatic fibrosis” (priority 1988, dated 1990)
